Patent publication US11780893B2, “Kv1.3 blockers” (Zealand Pharma A/S, priority 2019, dated 2023)
Read-outs that look alike come from different tables or passages of the source. Bridge positions count the residues as written; N and C are the ends. Square brackets hold non-standard residues; d marks the D form. Peptide text beside a SMILES is read from it. Nle = CCCC[C@H](N)C(=O)O

Legend:
[1] = target: T1, Kv1.2 (Homo sapiens, UniProt P16389); assay: cell-based
T1 construct: expressed in transfected cells; host or cells: Chinese Hamster Ovary (CHO)

[2] = target: T2, Kv1.3 (Homo sapiens, UniProt P22001); assay: cell-based
T2 construct: expressed in transfected cells; host or cells: Chinese Hamster Ovary (CHO)

[3] = target: T3, Kv1.1 (Homo sapiens, UniProt Q09470); assay: cell-based; conditions: for Selectivity Kv1.1/Kv1.3: ratio IC50[Kv1.1]/IC50[Kv1.3]
T3 construct: expressed in transfected cells; host or cells: Chinese Hamster Ovary (CHO)

[4] = target: T4, Kv1.6 (Homo sapiens, UniProt P17658); assay: cell-based; conditions: for Selectivity Kv1.6/Kv1.3: ratio IC50[Kv1.6]/IC50[Kv1.3]
T4 construct: expressed in transfected cells; host or cells: Chinese Hamster Ovary (CHO)

[5] = target: Rat whole blood (Rattus norvegicus, UniProt P15384)
[6] = target: T5, human Kv1.3 voltage-gated K+ channel (Homo sapiens, UniProt P22001); assay: cell-based
T5 construct: host or cells: CHO-DUKX

[7] = CHO cells, whole-cell patch clamp, read-out: Potency IC50 (nM) Kv1.2
[8] = CHO cells, whole-cell patch clamp, read-out: Potency IC50 (nM) Kv1.3
[9] = CHO cells, whole-cell patch clamp, read-out: Potency IC50 (nM) Kv1.1
[10] = CHO cells, whole-cell patch clamp, read-out: Potency IC50 (nM) Kv1.6
[11] = inhibition of thallium flux, CHO-DUKX cells with human Kv1.3, read-out: IC50

Chain of Rat whole blood (P15384 whole entry): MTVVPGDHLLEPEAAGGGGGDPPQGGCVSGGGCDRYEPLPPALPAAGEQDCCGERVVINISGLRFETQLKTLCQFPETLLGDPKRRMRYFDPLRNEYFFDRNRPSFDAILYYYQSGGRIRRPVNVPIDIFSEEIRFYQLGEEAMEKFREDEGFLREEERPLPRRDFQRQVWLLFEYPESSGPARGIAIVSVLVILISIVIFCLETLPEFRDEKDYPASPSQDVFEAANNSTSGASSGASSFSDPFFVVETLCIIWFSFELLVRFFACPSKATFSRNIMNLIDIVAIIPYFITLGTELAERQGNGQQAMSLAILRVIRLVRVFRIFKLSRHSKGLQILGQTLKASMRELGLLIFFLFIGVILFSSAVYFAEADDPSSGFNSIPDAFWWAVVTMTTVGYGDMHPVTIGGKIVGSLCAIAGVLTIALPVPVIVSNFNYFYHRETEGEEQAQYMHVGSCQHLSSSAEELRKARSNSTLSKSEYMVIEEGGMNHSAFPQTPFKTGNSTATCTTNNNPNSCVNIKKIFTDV
T4 sequence (P17658 whole entry): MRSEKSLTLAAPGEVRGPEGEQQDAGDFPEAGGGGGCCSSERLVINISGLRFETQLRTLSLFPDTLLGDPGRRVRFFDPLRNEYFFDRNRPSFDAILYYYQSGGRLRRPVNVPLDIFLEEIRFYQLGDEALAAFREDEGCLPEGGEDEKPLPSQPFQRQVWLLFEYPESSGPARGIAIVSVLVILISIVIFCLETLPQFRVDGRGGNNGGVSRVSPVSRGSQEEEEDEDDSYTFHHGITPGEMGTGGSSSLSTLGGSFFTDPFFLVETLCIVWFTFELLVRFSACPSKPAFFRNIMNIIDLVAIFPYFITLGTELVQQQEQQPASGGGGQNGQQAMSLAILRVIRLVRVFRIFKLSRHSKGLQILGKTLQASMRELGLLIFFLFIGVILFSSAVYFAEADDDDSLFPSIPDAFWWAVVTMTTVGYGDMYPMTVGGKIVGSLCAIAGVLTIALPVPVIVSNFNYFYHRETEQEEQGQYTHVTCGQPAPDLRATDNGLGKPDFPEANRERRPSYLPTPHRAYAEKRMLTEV
T2 sequence (P22001 whole entry): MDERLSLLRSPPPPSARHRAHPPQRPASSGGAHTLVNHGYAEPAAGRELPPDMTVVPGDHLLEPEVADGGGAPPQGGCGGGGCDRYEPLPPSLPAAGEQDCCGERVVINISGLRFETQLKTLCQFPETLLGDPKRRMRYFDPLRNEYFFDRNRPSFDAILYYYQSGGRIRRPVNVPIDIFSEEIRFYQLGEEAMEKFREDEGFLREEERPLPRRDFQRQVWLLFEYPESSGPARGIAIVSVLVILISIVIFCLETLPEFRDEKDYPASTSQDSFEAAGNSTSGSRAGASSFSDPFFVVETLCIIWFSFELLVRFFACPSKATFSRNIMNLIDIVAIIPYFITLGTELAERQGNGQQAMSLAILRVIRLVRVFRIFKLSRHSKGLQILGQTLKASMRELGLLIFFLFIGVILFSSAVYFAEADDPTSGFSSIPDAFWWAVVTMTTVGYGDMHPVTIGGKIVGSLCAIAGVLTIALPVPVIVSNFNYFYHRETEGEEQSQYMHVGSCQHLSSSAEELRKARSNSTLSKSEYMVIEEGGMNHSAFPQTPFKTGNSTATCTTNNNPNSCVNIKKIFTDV
T5 sequence (P22001 whole entry): as above
T1 sequence (P16389 whole entry): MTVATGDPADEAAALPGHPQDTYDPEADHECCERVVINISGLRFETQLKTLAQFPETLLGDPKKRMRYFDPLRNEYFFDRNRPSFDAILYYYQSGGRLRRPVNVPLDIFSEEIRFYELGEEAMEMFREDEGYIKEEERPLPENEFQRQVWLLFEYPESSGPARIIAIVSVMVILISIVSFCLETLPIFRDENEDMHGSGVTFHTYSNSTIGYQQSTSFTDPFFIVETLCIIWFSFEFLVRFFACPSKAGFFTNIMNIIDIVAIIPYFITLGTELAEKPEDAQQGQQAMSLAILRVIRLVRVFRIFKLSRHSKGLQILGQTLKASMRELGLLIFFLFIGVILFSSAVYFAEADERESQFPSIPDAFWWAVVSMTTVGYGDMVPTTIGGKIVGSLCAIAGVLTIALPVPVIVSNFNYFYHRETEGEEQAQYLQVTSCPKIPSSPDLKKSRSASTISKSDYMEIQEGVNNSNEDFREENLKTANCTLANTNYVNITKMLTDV
T3 sequence (Q09470 whole entry): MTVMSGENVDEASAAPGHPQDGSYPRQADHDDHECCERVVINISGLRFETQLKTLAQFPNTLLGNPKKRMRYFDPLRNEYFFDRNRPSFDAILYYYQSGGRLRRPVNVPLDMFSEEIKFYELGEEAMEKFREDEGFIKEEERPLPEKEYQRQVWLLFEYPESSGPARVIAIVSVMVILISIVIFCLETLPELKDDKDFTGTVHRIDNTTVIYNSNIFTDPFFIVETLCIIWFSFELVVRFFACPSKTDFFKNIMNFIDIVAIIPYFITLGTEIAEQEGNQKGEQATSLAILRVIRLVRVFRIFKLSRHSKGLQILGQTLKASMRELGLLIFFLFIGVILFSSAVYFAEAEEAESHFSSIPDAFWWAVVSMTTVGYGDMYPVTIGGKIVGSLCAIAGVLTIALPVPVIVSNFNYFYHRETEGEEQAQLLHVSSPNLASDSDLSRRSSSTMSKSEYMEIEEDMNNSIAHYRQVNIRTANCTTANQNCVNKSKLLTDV

CC[C@H](C)[C@@H]1NC(=O)[C@H](C)NC(=O)[C@H](CCCCN)NC(=O)[C@H](CCCCN)NC(=O)[C@@H]2CSSC[C@@H](C(=O)N[C@@H](Cc3ccc(O)cc3)C(=O)N3CCC[C@H]3C(=O)N[C@@H](CCCNC(=N)N)C(N)=O)NC(=O)[C@H](CCCCN)NC(=O)[C@@H]3CSSC[C@H](NC(=O)[C@H](CCC(=O)O)NC(=O)[C@H](C(C)C)NC(=O)[C@H](CO)NC(=O)[C@H](C)NC(=O)[C@H](CO)NC(=O)[C@@H](NC(=O)[C@H](CCCNC(=N)N)NC(=O)[C@H](CCSC)NC(=O)[C@H](CC(=O)O)NC(=O)[C@H](CCSC)NC(=O)[C@@H](N)CC(N)=O)CSSC[C@H](NC(=O)[C@H](CCCCN)NC(=O)CNC(=O)[C@H](Cc4ccccc4)NC(=O)[C@H]([C@@H](C)CC)NC(=O)[C@H](CO)NC(=O)CNC1=O)C(=O)N[C@@H](CCSC)C(=O)N[C@@H](CC(N)=O)C(=O)N[C@@H](CCCCN)C(=O)N[C@@H](CCCCN)C(=O)N3)C(=O)N[C@@H](CCCCN)C(=O)N[C@@H](CCC(N)=O)C(=O)N[C@@H](CCCCN)C(=O)N2 [Compound 19] (H-NMDMRCSASVECKQKCKKAIGSIFGKCMNKKCKCYPR-NH2; disulfide 6-27, 12-32, 16-34) was tested, and the IC50 [1, 7] was 45 nM, the IC50 [2, 8] was 0.22 nM and the IC50 [3, 9] was > 3000 nM. The “Selectivity Kv1.1/Kv1.3” value [3] was >13500, the IC50 [4, 10] was 435 nM and the IC50 [5] was ≤ 1 nM. It also gave an IC50 [6, 11] of 0.12 nM.
In the case of CC[C@H](C)[C@@H]1NC(=O)[C@H](C)NC(=O)[C@H](CCCCN)NC(=O)[C@H](CC(C)C)NC(=O)[C@@H]2CSSC[C@@H](C(=O)N[C@@H](Cc3ccc(O)cc3)C(=O)N3CCC[C@H]3C(=O)N[C@@H](CCCNC(=N)N)C(N)=O)NC(=O)[C@H](CCCCN)NC(=O)[C@@H]3CSSC[C@H](NC(=O)[C@H](CCC(=O)O)NC(=O)[C@H](C(C)C)NC(=O)[C@H](CO)NC(=O)[C@H](C)NC(=O)[C@H](CO)NC(=O)[C@@H](NC(=O)[C@H](CCCNC(=N)N)NC(=O)[C@H](CCSC)NC(=O)[C@H](CC(=O)O)NC(=O)[C@H](CCSC)NC(=O)[C@@H](N)CC(N)=O)CSSC[C@H](NC(=O)[C@H](CCCCN)NC(=O)CNC(=O)[C@H](Cc4ccccc4)NC(=O)[C@H]([C@@H](C)CC)NC(=O)[C@H](CO)NC(=O)[C@H](CCCNC(=N)N)NC1=O)C(=O)N[C@@H](CCSC)C(=O)N[C@@H](CC(N)=O)C(=O)N[C@@H](CCCCN)C(=O)N[C@@H](CCCCN)C(=O)N3)C(=O)N[C@@H](CCCCN)C(=O)N[C@@H](CCC(N)=O)C(=O)N[C@@H](CCCCN)C(=O)N2 [Compound 21] (H-NMDMRCSASVECKQKCLKAIRSIFGKCMNKKCKCYPR-NH2; disulfide 6-27, 12-32, 16-34), the IC50 [1, 7] is reported as 57 nM, the IC50 [2, 8] is reported as 0.22 nM and the IC50 [3, 9] is reported as > 3000 nM. For the same compound, the “Selectivity Kv1.1/Kv1.3” value [3] was >13700, the IC50 [4, 10] was 626 nM and the IC50 [5] was ≤ 1 nM. It also gave an IC50 [6, 11] of 0.12 nM.
With CC[C@H](C)[C@@H]1NC(=O)[C@H](C)NC(=O)[C@H](CCCCN)NC(=O)[C@H](CC(C)C)NC(=O)[C@@H]2CSSC[C@@H](C(=O)N[C@@H](Cc3ccc(O)cc3)C(=O)N3CCC[C@H]3C(=O)N[C@@H](CCCNC(=N)N)C(N)=O)NC(=O)[C@H](CCCCN)NC(=O)[C@@H]3CSSC[C@H](NC(=O)[C@H](CCC(=O)O)NC(=O)[C@H](C(C)C)NC(=O)[C@H](CO)NC(=O)[C@H]([C@@H](C)CC)NC(=O)[C@H](CO)NC(=O)[C@@H](NC(=O)[C@H](CCCNC(=N)N)NC(=O)[C@H](CCSC)NC(=O)[C@H](CC(=O)O)NC(=O)[C@H](CCSC)NC(=O)[C@@H](N)CC(N)=O)CSSC[C@H](NC(=O)[C@H](CCCCN)NC(=O)CNC(=O)[C@H](Cc4ccccc4)NC(=O)[C@H]([C@@H](C)CC)NC(=O)[C@H](CO)NC(=O)CNC1=O)C(=O)N[C@@H](CCSC)C(=O)N[C@@H](CC(N)=O)C(=O)N[C@@H](CCCCN)C(=O)N[C@@H](CCCCN)C(=O)N3)C(=O)N[C@@H](CCCCN)C(=O)N[C@@H](CCC(N)=O)C(=O)N[C@@H](CCCCN)C(=O)N2 [Compound 26] (H-NMDMRCSISVECKQKCLKAIGSIFGKCMNKKCKCYPR-NH2; disulfide 6-27, 12-32, 16-34) the IC50 [1, 7] was 43 nM, the IC50 [2, 8] was 0.26 nM and the IC50 [3, 9] was > 3000 nM. The “Selectivity Kv1.1/Kv1.3” value [3] was >11800, the IC50 [4, 10] was > 3000 nM and the “Selectivity Kv1.6/Kv1.3” value [4] was >11800. The IC50 [5] was ≤ 1 nM and the IC50 [6, 11] was 0.092 nM.
For CC[C@H](C)[C@@H]1NC(=O)[C@H](C)NC(=O)[C@H](CCCCN)NC(=O)[C@H](CC(C)C)NC(=O)[C@@H]2CSSC[C@@H](C(=O)N[C@@H](Cc3ccc(O)cc3)C(=O)N3CCC[C@H]3C(=O)N[C@@H](CCCNC(=N)N)C(N)=O)NC(=O)[C@H](CCCCN)NC(=O)[C@@H]3CSSC[C@H](NC(=O)[C@H](CCC(=O)O)NC(=O)[C@H](CCCNC(=N)N)NC(=O)[C@H](CO)NC(=O)[C@H](C)NC(=O)[C@H](CO)NC(=O)[C@@H](NC(=O)[C@H](CCCNC(=N)N)NC(=O)[C@H](CCSC)NC(=O)[C@H](CC(=O)O)NC(=O)[C@H](CCSC)NC(=O)[C@@H](N)CC(N)=O)CSSC[C@H](NC(=O)[C@H](CCCCN)NC(=O)CNC(=O)[C@H](Cc4ccccc4)NC(=O)[C@H]([C@@H](C)CC)NC(=O)[C@H](CO)NC(=O)CNC1=O)C(=O)N[C@@H](CCSC)C(=O)N[C@@H](CC(N)=O)C(=O)N[C@@H](CCCCN)C(=O)N[C@@H](CCCCN)C(=O)N3)C(=O)N[C@@H](CCCCN)C(=O)N[C@@H](CCC(N)=O)C(=O)N[C@@H](CCCCN)C(=O)N2 [Compound 27] (H-NMDMRCSASRECKQKCLKAIGSIFGKCMNKKCKCYPR-NH2; disulfide 6-27, 12-32, 16-34), the IC50 [1, 7] was 11 nM, the IC50 [2, 8] was 0.12 nM and the IC50 [3, 9] was > 3000 nM. For the same compound, the “Selectivity Kv1.1/Kv1.3” value [3] was >25900, the IC50 [4, 10] was 206 nM and the IC50 [5] was ≤ 1 nM. The IC50 [6, 11] was 0.065 nM.
For CCCC[C@@H]1NC(=O)[C@@H]2CSSC[C@H](NC(=O)[C@H](CCCNC(=N)N)NC(=O)[C@H](CCCC)NC(=O)[C@H](CCC(=O)O)NC(=O)[C@@H](NC(=O)[C@@H]3CCCN3)[C@@H](C)CC)C(=O)N[C@@H](CO)C(=O)N[C@@H](C)C(=O)N[C@@H](CO)C(=O)N[C@@H](C(C)C)C(=O)N[C@@H](CCC(=O)O)C(=O)N[C@H]3CSSC[C@H](NC(=O)[C@H](CCCCN)NC(=O)[C@H](CCCCN)NC(=O)[C@H](CC(N)=O)NC1=O)C(=O)N[C@@H](CCCCN)C(=O)N[C@H](C(=O)N[C@@H](Cc1ccc(O)cc1)C(=O)N1CCC[C@H]1C(=O)N[C@@H](CCCNC(=N)N)C(=O)O)CSSC[C@H](NC(=O)[C@H](CCCCN)NC(=O)[C@H](CCC(N)=O)NC(=O)[C@H](CCCCN)NC3=O)C(=O)N[C@@H](CC(C)C)C(=O)N[C@@H](CCCCN)C(=O)N[C@@H](C)C(=O)N[C@@H]([C@@H](C)CC)C(=O)NCC(=O)N[C@@H](CO)C(=O)N[C@@H]([C@@H](C)CC)C(=O)N[C@@H](Cc1ccccc1)C(=O)NCC(=O)N[C@@H](CCCCN)C(=O)N2 [Compound 96] (H-PIE[Nle]RCSASVECKQKCLKAIGSIFGKC[Nle]NKKCKCYPR-OH; disulfide 6-27, 12-32, 16-34), the IC50 [1] was 1760 nM, the IC50 [2] was 0.39 nM and the IC50 [3] was > 3000 nM. For the same compound, the IC50 [4] was > 3000 nM and the IC50 [6] was 0.15 nM.
For CCCC[C@@H]1NC(=O)[C@@H]2CSSC[C@H](N)C(=O)N[C@@H](CO)C(=O)N[C@@H](C)C(=O)N[C@@H](CO)C(=O)N[C@@H](C(C)C)C(=O)N[C@@H](CCC(=O)O)C(=O)N[C@H]3CSSC[C@H](NC(=O)[C@H](CCCCN)NC(=O)[C@H](CCCCN)NC(=O)[C@H](CC(N)=O)NC1=O)C(=O)N[C@@H](CCCCN)C(=O)N[C@H](C(=O)N[C@@H](Cc1ccc(O)cc1)C(=O)N1CCC[C@H]1C(=O)N[C@@H](CCCNC(=N)N)C(N)=O)CSSC[C@H](NC(=O)[C@H](CCCCN)NC(=O)[C@H](CCC(N)=O)NC(=O)[C@H](CCCCN)NC3=O)C(=O)N[C@@H](CC(C)C)C(=O)N[C@@H](CCCCN)C(=O)N[C@@H](C)C(=O)N[C@@H]([C@@H](C)CC)C(=O)NCC(=O)N[C@@H](CO)C(=O)N[C@@H]([C@@H](C)CC)C(=O)N[C@@H](Cc1ccccc1)C(=O)NCC(=O)N[C@@H](CCCCN)C(=O)N2 [Compound 104] (H-CSASVECKQKCLKAIGSIFGKC[Nle]NKKCKCYPR-NH2; disulfide 1-22, 7-27, 11-29), the IC50 [1, 7] was > 3000 nM, the “Selectivity Kv1.2/Kv1.3” value ([1]; ratio IC50[Kv1.2]/IC50[Kv1.3]) was >7000 and the IC50 [2, 8] was 0.43 nM. The IC50 [3, 9] was > 3000 nM, the “Selectivity Kv1.1/Kv1.3” value [3] was >7000 and the IC50 [4, 10] was > 3000 nM. For the same compound, the “Selectivity Kv1.6/Kv1.3” value [4] was >7000 and the IC50 [6, 11] was 0.12 nM.
CC[C@H](C)[C@@H]1NC(=O)[C@H](C)NC(=O)[C@H](CCCCN)NC(=O)[C@H](CC(C)C)NC(=O)[C@@H]2CSSC[C@@H](C(=O)N[C@@H](Cc3ccc(O)cc3)C(=O)N3CCC[C@H]3C(=O)N[C@@H](CCCNC(=N)N)C(=O)O)NC(=O)[C@H](CCCCN)NC(=O)[C@@H]3CSSC[C@H](NC(=O)[C@H](CCC(=O)O)NC(=O)[C@H](C(C)C)NC(=O)[C@H](CO)NC(=O)[C@H](C)NC(=O)[C@H](CO)NC(=O)[C@@H](N)CSSC[C@H](NC(=O)[C@H](CCCCN)NC(=O)CNC(=O)[C@H](Cc4ccccc4)NC(=O)[C@H]([C@@H](C)CC)NC(=O)[C@H](CO)NC(=O)CNC1=O)C(=O)N[C@@H](CCSC)C(=O)N[C@@H](CC(N)=O)C(=O)N[C@@H](CCCCN)C(=O)N[C@@H](CCCCN)C(=O)N3)C(=O)N[C@@H](CCCCN)C(=O)N[C@@H](CCC(N)=O)C(=O)N[C@@H](CCCCN)C(=O)N2 [Compound 117] (H-CSASVECKQKCLKAIGSIFGKCMNKKCKCYPR-OH; disulfide 1-22, 7-27, 11-29) was tested, and the IC50 [1, 7] was 1830 nM, the IC50 [2, 8] was 2.09 nM and the IC50 [3, 9] was > 3000 nM. The “Selectivity Kv1.1/Kv1.3” value [3] was >1400, the IC50 [4, 10] was > 3000 nM and the “Selectivity Kv1.6/Kv1.3” value [4] was >1400. The IC50 [6, 11] was 1.5 nM.
